Data from patent US12263248B2, “Compounds and compositions for intracellular delivery of therapeutic agents” (ModernaTX, Inc., priority 2018, dated 2025).

Legend:
[1] = Particle size and polydispersity index of nanoparticle compositions (Zetasizer Nano ZS); format: physicochemical
Protocol: A Zetasizer Nano ZS (Malvern Instruments Ltd, Malvern, Worcestershire, UK) can be used to determine the particle size, the polydispersity index (PDI) and the zeta potential of the nanoparticle compositions in 1×PBS in determining particle size and 15 mM PBS in determining zeta potential.

[2] = Encapsulation efficiency of RNA (QUANT-IT RIBOGREEN RNA assay); format: physicochemical
Protocol: For nanoparticle compositions including an RNA, a QUANT-IT™ RIBOGREEN® RNA assay (Invitrogen Corporation Carlsbad, CA) can be used to evaluate the encapsulation of an RNA by the nanoparticle composition. The samples are diluted to a concentration of approximately […] in a TE buffer solution (10 mM Tris-HCl, 1 mM EDTA, pH 7.5). 50 μL of the diluted samples are transferred to a polystyrene 96 well plate and either 50 μL of TE buffer or 50 μL of a 2% Triton X-100 solution is added to the wells. The plate is incubated at a temperature of 37° C. for 15 minutes. The RIBOGREEN® reagent is diluted 1:100 in TE buffer, and 100 μL of this solution is added to each well. The fluorescence intensity can be measured using a fluorescence plate reader (Wallac Victor 1420 Multilabel Counter; Perkin Elmer, Waltham, MA) at an excitation wavelength of, for example, about 480 nm and an emission wavelength of, for example, about 520 nm. The fluorescence values of the reagent blank are subtracted from that of each of the samples and the percentage of free RNA is determined by dividing the fluorescence intensity of the intact sample (without addition of Triton X-100) by the fluorescence value of the disrupted sample (caused by the addition of Triton X-100).

luciferase (Luc) mRNA [3] = test: Luc expression in liver, lung, spleen and femur 6 hours after intravenous administration; format: in vivo; details: mice, 0.5 mpk; for Total Flux Liver / Total Flux Lung / Total Flux Spleen: intravenous
Protocol: The efficacy of the nanoparticle compositions presented in Table 1A was further evaluated by measuring the expression of modified luciferase in the liver, lung, spleen, and femur upon administration of a given composition. Formulations were administered intravenously to mice (n=3) at a dosage of 0.5 mpk and bioluminescence measured after 6 hours. The standard MC3 formulation and a PBS control were also tested. […] Flux in the liver was lowest for compositions including Compounds 58, 59, 137, and 141. Flux in the spleen was highest for compositions including Compounds 4, 7, 33, 34, 48, 53, 108, 129, 130, and 148, and lowest for compositions including Compounds 9, 59, 124, and 141.
(§1) Whole body and ex vivo organ bioluminescent imaging of mice: CD-1 mice were injected 15 minutes prior to the imaging timepoint intraperitoneally (IP) with 200 μL Xenolight D-luciferin K+ salt, diluted in PBS just prior to use to a concentration of 15 mg/mL. Ex vivo imaging of organs was completed within 25 minutes of luciferin administration. All images were quantified by region of interest for total flux.

luciferase (Luc) mRNA [4] = test: Luc expression, whole body bioluminescence after intravenous administration to mice; format: in vivo; details: for Total Flux 3 hours / Total Flux 6 hours / Total Flux 24 hours / flux at all timepoints measured: mice, i.v., 0.5 mg/kg; for Total Flux 3 hours / Total Flux 6 hours / Total Flux 24 hours: Luc mRNA; for Fold increase in total body Luc Flux relative to MC3 at 6 h: Table 3A, i.v. administration; for flux at all timepoints measured: 3, 6 and 24 hour, in words
Protocol: In order to monitor how effectively various nanoparticle compositions deliver therapeutic and/or prophylactics to targeted cells, different nanoparticle compositions including a particular therapeutic and/or prophylactic (for example, a modified or naturally occurring RNA such as an mRNA) are prepared and administered to rodent populations. Mice are intravenously, intramuscularly, intraarterially, or intratumorally administered a single dose including a nanoparticle composition with a formulation such as those provided in Example 3. In some instances, mice may be made to inhale doses. Dose sizes may range from 0.001 mg/kg to 10 mg/kg, where 10 mg/kg describes a dose including 10 mg of a therapeutic and/or prophylactic in a nanoparticle composition for each 1 kg of body mass of the mouse. A control composition including PBS may also be employed.
Upon administration of nanoparticle compositions to mice, dose delivery profiles, dose responses, and toxicity of particular formulations and doses thereof can be measured by enzyme-linked immunosorbent assays (ELISA), bioluminescent imaging, or other methods. For nanoparticle compositions including mRNA, time courses of protein expression can also be evaluated. Samples collected from the rodents for evaluation may include blood, sera, and tissue (for example, muscle tissue from the site of an intramuscular injection and internal tissue); sample collection may involve sacrifice of the animals.
The efficacy of the nanoparticle compositions presented in Table 1A was evaluated with a bioluminescence study. Formulations were administered intravenously to mice (n=6) at a dosage of 0.5 mg/kg (mpk) and bioluminescence measured at 3, 6, and 24 hour time points. The standard MC3 formulation and, in some instances, a control (e.g., a PBS control) were evaluated for comparison. […] In general, flux decreased as time progressed to less than 10% of the initial flux.
as §1

[5] = Table 1A, lipid:DSPC:cholesterol:PEG-DMG 50:10:38.5:1.5 mol %
[6] = Table 1B, formulated with hEPO mRNA

Compound | Size (nm) [1, 5] [nm] | EE (%) ([2]; Table 1A) | PDI ([1]; Table 1A) | Total Flux Liver (luciferase (Luc) mRNA [3]) | Total Flux Lung (luciferase (Luc) mRNA [3]) | Total Flux Spleen (luciferase (Luc) mRNA [3]) | Total Flux 3 hours (luciferase (Luc) mRNA [4]) | Total Flux 6 hours (luciferase (Luc) mRNA [4]) | Total Flux 24 hours (luciferase (Luc) mRNA [4]) | Fold increase in total body Luc Flux relative to MC3 at 6 h (luciferase (Luc) mRNA [4]) | Flux in the spleen (luciferase (Luc) mRNA [3]; i.v., in words) | Flux in the liver (luciferase (Luc) mRNA [3]; i.v., in words) | flux at all timepoints measured (luciferase (Luc) mRNA [4]) | PDI [1, 6] | Size (nm) [1, 6] [nm] | EE (%) [2, 6] [%]
CCCCCCCCCOC(=O)CCCCCCCN(CCC#N)CCCCCCCC(=O)OC(CCCCCCCC)CCCCCCCC [Compound 21, Heptadecan-9-yl 8-((2-cyanoethyl)(8-(nonyloxy)-8-oxooctyl)amino) octanoate] | 53.5 | −15.1 | – | – | – | – | – | – | – | – | – | – | – | – | – | –
CCCCCCCCC(CCCCCCCC)OC(=O)CCCCCCCN(CCO)CCCCCCCCC1CC1CCCCCCCC (centres unmarked) [Compound 47, heptadecan-9-yl 8-((2-hydroxyethyl)(8-(2-octylcyclopropyl)octyl)amino)octanoate] | 80.6 | 96.40 | 0.10 | 4.86E+09 | 8.71E+06 | 8.33E+07 | 6.55E+10 | 5.38E+10 | 2.09E+09 | – | – | – | – | – | – | –
CCCCCCCCC(CCCCCCCC)OC(=O)CCCCCCCN(CCO)CCCC(=O)OCCCC [Compound 51, heptadecan-9-yl 8-((4-butoxy-4-oxobutyl)(2-hydroxyethyl)amino) octanoate] | 148.8 | 89.83 | 0.17 | 2.49E+07 | 3.67E+05 | 2.80E+07 | 1.34E+08 | 2.80E+08 | 6.20E+06 | 0.025 | – | – | – | – | – | –
CCCCCCCCC(CCCCCCCC)OC(=O)CCCCCCCN(CCO)CCCC(=O)OCCCCC [Compound 52, heptadecan-9-yl 8-((2-hydroxyethyl)(4-oxo-4-(pentyloxy)butyl)amino) octanoate] | 130.5 | 93.25 | 0.19 | 5.86E+08 | 2.80E+06 | 8.30E+07 | 2.91E+09 | 4.63E+09 | 2.55E+07 | – | – | – | – | – | – | –
CCCCCCCCC(CCCCCCCC)OC(=O)CCCCCCCN(CCO)CCCC(=O)OCCCCCC [Compound 53, heptadecan-9-yl 8-((4-(hexyloxy)-4-oxobutyl)(2-hydroxyethyl)amino) octanoate] | 125.4 | 95.8 | 0.13 | 2.02E+09 | 2.47E+07 | 8.54E+08 | 1.91E+10 | 2.32E+10 | 1.01E+09 | 2.11 | highest | – | – | – | – | –
CCCCCCCCCOC(=O)CCCCCCCN(CCO)CCCCCCCC(=O)OC(CCCCCC)CCCCCC [Compound 56, nonyl 8-((2-hydroxyethyl)(8-oxo-8-(tridecan-7-yloxy)octyl)amino) octanoate] | 112.1 | 95.18 | 0.17 | 1.04E+09 | 4.62E+06 | 1.98E+08 | 1.27E+10 | 8.06E+09 | 2.53E+08 | 0.733 | – | – | – | – | – | –
CCCCCCCCCOC(=O)CCCCCCCN(CCO)CCCCCCCC(=O)OC(CCC)CCC [Compound 58, heptan-4-yl 8-((2-hydroxyethyl)(8-(nonyloxy)-8-oxooctyl)amino) octanoate] | 130.8 | 92.54 | 0.14 | 8.71E+04 | 1.21E+04 | 2.38E+05 | 5.69E+05 | 7.60E+05 | 3.64E+05 | 0.00007 | – | lowest | significantly lower flux | – | – | –
CCCCCCCCCOC(=O)CCCCCCCN(CCCCCCCC(=O)OC(CCCCCCCC)CCCCCCCC)CCCn1ccc(N)nc1=O [Compound 115, Heptadecan-9-yl 8-((3-(4-amino-2-oxopyrimidin-1(2H)-yl)propyl)(8-(nonyloxy)-8-oxooctyl)amino)octanoate] | 64.5 | 99.7 | 0.11 | – | – | – | 2.13E+07 | 2.91E+07 | – | – | – | – | – | – | – | –
CCCCCCCCCOC(=O)CCCCCCCN(CCCCCCCC(=O)OC(CCCCCCCC)CCCCCCCC)CCC(=O)O [Compound 125, 3-((8-(Heptadecan-9-yloxy)-8-oxooctyl)(8-(nonyloxy)-8-oxooctyl)amino)propanoic acid] | 90.9 | 79.6 | 0.16 | – | – | – | 2.44E+05 | 3.16E+05 | – | – | – | – | significantly lower flux | – | – | –
CCCCCCCCCOC(=O)CCCCCCCN(CCCCCCCC(=O)OC(CCCCCCCC)CCCCCCCC)CCCC(=O)NC [Compound 239, Heptadecan-9-yl 8-((4-(methylamino)-4-oxobutyl)(8-(nonyloxy)-8-oxooctyl)amino)octanoate] | 55.8 | 90.42 | 0.12 | – | – | – | – | – | – | – | – | – | – | 0.14 | 71.3 | 82.6
